Measurements from patent US11034715B2, “Ectonucleotidase inhibitors and methods of use thereof” (Calithera Biosciences, Inc., priority 2016, dated 2021).

What was measured:
recombinant CD73 = recombinant CD73 (Homo sapiens (Human), UniProt P21589); experiment: Inhibition of the CD73 enzyme in vitro (soluble recombinant CD73, AMP, Malachite Green); assay type: biochemical; conditions: recombinant CD73 0.5 nM, AMP 50 μM, 30 minutes at room temperature
Method: The concentration of inorganic phosphate was determined using a phosphate standard curve.

[1] = target: endogenous, cell-bound CD73 on SK-MEL-28 cells (Homo sapiens (Human), UniProt P21589); experiment: Inhibition of endogenous, cell-bound CD73 enzyme activity in SK-MEL-28 cells (AMP, Malachite Green); assay type: cell-based; conditions: 100 μM AMP, 30 minutes at room temperature
Method: The day before the experiment, 5000 cells were plated per well in a 96-well plate. Cells were washed twice with 200 μL reaction buffer (20 mM HEPES, pH 7.4, 125 mM NaCl, 1 mM KCl, 2 mM MgCl2, 10 mM glucose) to remove residual inorganic phosphate. After washing, assays contained serial dilutions of test compounds and 100 μM of AMP in a total volume of 200 μL reaction buffer, with a final DMSO concentration ≤0.5%. After 30 minutes at room temperature, supernatant was removed from the cells. […] The concentration of inorganic phosphate was determined using a phosphate standard curve to determine IC50.

Sequence of recombinant CD73 (P21589 27-547): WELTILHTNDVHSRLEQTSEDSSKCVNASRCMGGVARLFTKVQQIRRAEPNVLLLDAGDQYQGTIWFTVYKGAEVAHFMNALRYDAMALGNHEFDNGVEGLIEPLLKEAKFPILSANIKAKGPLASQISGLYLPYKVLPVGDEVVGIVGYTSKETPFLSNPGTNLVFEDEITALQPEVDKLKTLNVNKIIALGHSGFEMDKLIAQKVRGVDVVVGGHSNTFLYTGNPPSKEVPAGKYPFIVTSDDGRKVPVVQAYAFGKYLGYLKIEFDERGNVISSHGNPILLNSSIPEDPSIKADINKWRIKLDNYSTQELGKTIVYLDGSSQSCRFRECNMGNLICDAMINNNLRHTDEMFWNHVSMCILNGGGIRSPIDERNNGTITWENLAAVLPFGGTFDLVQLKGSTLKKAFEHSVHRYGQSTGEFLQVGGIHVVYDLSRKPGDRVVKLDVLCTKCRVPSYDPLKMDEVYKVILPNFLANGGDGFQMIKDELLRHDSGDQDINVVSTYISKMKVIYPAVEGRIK
Sequence of endogenous, cell-bound CD73 on SK-MEL-28 cells (P21589 27-574): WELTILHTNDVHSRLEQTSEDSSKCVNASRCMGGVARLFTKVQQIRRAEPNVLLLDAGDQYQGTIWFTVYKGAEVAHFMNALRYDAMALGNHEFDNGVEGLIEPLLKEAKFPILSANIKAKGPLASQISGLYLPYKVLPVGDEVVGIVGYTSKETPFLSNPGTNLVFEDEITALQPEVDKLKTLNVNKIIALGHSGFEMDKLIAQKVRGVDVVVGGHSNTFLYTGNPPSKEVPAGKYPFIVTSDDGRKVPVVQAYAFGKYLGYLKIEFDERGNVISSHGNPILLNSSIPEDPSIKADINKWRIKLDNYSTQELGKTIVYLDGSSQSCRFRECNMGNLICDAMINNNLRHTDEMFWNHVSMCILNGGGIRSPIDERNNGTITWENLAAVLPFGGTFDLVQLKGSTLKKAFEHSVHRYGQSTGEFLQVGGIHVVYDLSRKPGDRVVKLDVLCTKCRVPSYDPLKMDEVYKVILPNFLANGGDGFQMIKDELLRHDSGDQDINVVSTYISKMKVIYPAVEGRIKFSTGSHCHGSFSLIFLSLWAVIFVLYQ

| Compound | IC50 (recombinant CD73) [nM] | IC50 [1] [nM] |
| --- | --- | --- |
| CCOC(=O)C(Cc1ccc(OC(F)(F)F)cc1)(OC[C@H]1O[C@@H](n2cnc3c(N)nc(Cl)nc32)[C@@H](F)[C@@H]1O)C(=O)O (single isomer, unassigned) [compound 37] | 718 | 598 |
| Nc1nc(Cl)nc2c1ncn2[C@@H]1O[C@H](COC(Cc2ccccc2)(C(=O)O)C(=O)O)[C@@H](O)[C@H]1N [compound 55, 2-(((2R,3S,4R,5R)-4-amino-5-(6-amino-2-chloro-9H-purin-9-yl)-3-hydroxytetrahydrofuran-2-yl)methoxy)-2-benzylmalonic acid] | – | > 50000 |
| O=C(O)C(Cc1ccccc1)(OC[C@H]1O[C@@H](n2cnc3c(O)nc(Cl)nc32)[C@@H](F)[C@@H]1O)C(=O)O [compound 74, 2-benzyl-2-(((2R,3R,4S,5R)-5-(2-chloro-6-hydroxy-9H-purin-9-yl)-4-fluoro-3-hydroxytetrahydrofuran-2-yl)methoxy)malonic acid] | 1660 | 2560 |
| COc1ccc(CC(OC[C@H]2O[C@@H](n3cnc4c(N)nc(Cl)nc43)[C@@H](F)[C@@H]2O)(C(=O)O)C(=O)O)cc1Cl [compound 85, 2-(((2R,3R,4S,5R)-5-(6-amino-2-chloro-9H-purin-9-yl)-4-fluoro-3-hydroxytetrahydrofuran-2-yl)methoxy)-2-(3-chloro-4-methoxybenzyl)malonic acid] | 183 | – |
| Nc1nc(Cl)nc2c1ncn2[C@@H]1O[C@H](COC(Cc2ccc(S(N)(=O)=O)cc2)(C(=O)O)C(=O)O)[C@@H](O)[C@@H]1F [compound 86, 2-(((2R,3R,4S,5R)-5-(6-amino-2-chloro-9H-purin-9-yl)-4-fluoro-3-hydroxytetrahydrofuran-2-yl)methoxy)-2-(4-sulfamoylbenzyl)malonic acid] | 62 | – |
| Nc1nc(Cl)nc2c1ncn2[C@@H]1O[C@H](COC(Cc2ccc(C(=O)NCCC(=O)O)cc2)(C(=O)O)C(=O)O)[C@@H](O)[C@@H]1F [compound 87, 2-(((2R,3R,4S,5R)-5-(6-amino-2-chloro-9H-purin-9-yl)-4-fluoro-3-hydroxytetrahydro-furan-2-yl)methoxy)-2-(4-((2-carboxy-ethyl)carbamoyl)benzyl) malonic acid] | 83 | – |
| Nc1nc(Cl)nc2c1ncn2[C@@H]1O[C@H](COC(Cc2ccc3oc(C(=O)O)cc3c2)(C(=O)O)C(=O)O)[C@@H](O)[C@@H]1F [compound 88, 2-(((2R,3R,4S,5R)-5-(6-amino-2-chloro-9H-purin-9-yl)-4-fluoro-3-hydroxytetrahydro-furan-2-yl)methoxy)-2-((2-carboxybenzofuran-5-yl)methyl)malonic acid] | 238 | – |
| Nc1nc(Cl)nc2c1ncn2[C@@H]1O[C@H](COC(Cc2ccc(OCC(F)(F)F)cc2)(C(=O)O)C(=O)O)[C@@H](O)[C@@H]1F [compound 89, 2-(((2R,3R,4S,5R)-5-(6-amino-2-chloro-9H-purin-9-yl)-4-fluoro-3-hydroxytetrahydrofuran-2-yl)methoxy)-2-(4-(2,2,2-trifluoroethoxy)benzyl) malonic acid] | 43 | – |
| Nc1nc(Cl)nc2c1ncn2[C@@H]1O[C@H](COC(Cc2ccc(OCC(=O)O)cc2)(C(=O)O)C(=O)O)[C@@H](O)[C@@H]1F [compound 92, 2-(((2R,3R,4S,5R)-5-(6-amino-2-chloro-9H-purin-9-yl)-4-fluoro-3-hydroxytetrahydrofuran-2-yl)methoxy)-2-(4-(carboxymethoxy)benzyl) malonic acid] | 172 | – |
| Cc1nnc(-c2ccc(CC(OC[C@H]3O[C@@H](n4cnc5c(N)nc(Cl)nc54)[C@@H](F)[C@@H]3O)(C(=O)O)C(=O)O)cc2)o1 [compound 94, 2-(((2R,3R,4S,5R)-5-(6-amino-2-chloro-9H-purin-9-yl)-4-fluoro-3-hydroxytetrahydrofuran-2-yl)methoxy)-2-(4-(5-methyl-1,3,4-oxadiazol-2-yl)benzyl) malonic acid] | 906 | – |
| N#Cc1ccccc1-c1ccc(CC(OC[C@H]2O[C@@H](n3cnc4c(N)nc(Cl)nc43)[C@@H](F)[C@@H]2O)(C(=O)O)C(=O)O)cc1 [compound 95] | 105 | – |
| Nc1nc(Cl)nc2c1ncn2[C@@H]1O[C@H](COC(Cc2csc3ccc(Cl)cc23)(C(=O)O)C(=O)O)[C@@H](O)[C@@H]1F [compound 96, 2-(((2R,3R,4S,5R)-5-(6-amino-2-chloro-9H-purin-9-yl)-4-fluoro-3-hydroxytetrahydrofuran-2-yl)methoxy)-2-((5-chlorobenzo[b]thiophen-3-yl)methyl)-malonic acid] | 788 | – |
| Nc1nc(Cl)nc2c1ncn2[C@@H]1O[C@H](COC(Cc2nc3ccccc3s2)(C(=O)O)C(=O)O)[C@@H](O)[C@@H]1F [compound 97, 2-(((2R,3R,4S,5R)-5-(6-amino-2-chloro-9H-purin-9-yl)-4-fluoro-3-hydroxytetrahydrofuran-2-yl)methoxy)-2-(benzo[d]thiazol-2-ylmethyl)malonic acid] | 3430 | – |
| CNC(=O)c1ccc(CC(OC[C@H]2O[C@@H](n3cnc4c(N)nc(Cl)nc43)[C@@H](F)[C@@H]2O)(C(=O)O)C(=O)O)cc1 [compound 98, 2-(((2R,3R,4S,5R)-5-(6-amino-2-chloro-9H-purin-9-yl)-4-fluoro-3-hydroxytetrahydrofuran-2-yl)methoxy)-2-(4-(methylcarbamoyl)benzyl) malonic acid] | 512 | – |
| C[C@@]1(O)[C@H](O)[C@@H](COC(Cc2ccc(C(=O)O)cc2)(C(=O)O)C(=O)O)O[C@H]1n1cnc2c(N)nc(Cl)nc21 [compound 107] | 42500 | – |
| Nc1nc(Cl)nc2c1ncn2[C@@H]1O[C@H](COC(Cc2ccc(F)c(F)c2F)(C(=O)O)C(=O)O)[C@@H](O)[C@@H]1F [compound 108] | 104 | 246 |
| O=C(O)C(Cc1ccccc1)(OC[C@H]1O[C@@H](n2cnc3c(SC4CCCC4)nc(Cl)nc32)[C@@H](F)[C@@H]1O)C(=O)O [compound 109] | 601 | 1910 |
| Nc1nc(Cl)nc2c1ncn2[C@@H]1O[C@H](COC(Cc2ccc3c(c2)OC(F)(F)O3)(C(=O)O)C(=O)O)[C@@H](O)[C@@H]1F [compound 110] | 66 | 361 |
| NC(=O)c1ccc(CC(OC[C@H]2O[C@@H](n3cnc4c(N)nc(Cl)nc43)[C@@H](F)[C@@H]2O)(C(=O)O)C(=O)O)cc1 [compound 111] | 141 | 182 |

| Compound | IC50 (recombinant CD73) [nM] | IC50 [1] [nM] |
| --- | --- | --- |
| C[C@@]1(F)[C@H](O)[C@@H](COC(Cc2ccc(C(=O)O)cc2)(C(=O)O)C(=O)O)O[C@H]1n1cnc2c(N)nc(Cl)nc21 [compound 117] | 63900 | – |
| CCOC(=O)C(Cc1ccccc1)(OC[C@@H]1C[C@H](F)[C@H](n2cnc3c(N)nc(Cl)nc32)O1)C(=O)OCC [compound 118] | > 200000 | – |
| Nc1nc(Cl)nc2c1ncn2[C@@H]1O[C@H](COC(Cc2ccccc2)(C(=O)O)C(=O)O)C[C@@H]1F [compound 119] | 28000 | – |
| COc1nc(N)c2ncn([C@@H]3O[C@H](COC(Cc4ccccc4)(C(=O)O)C(=O)O)C[C@@H]3F)c2n1 [compound 120] | 54500 | – |
| Nc1nc(Cl)nc2c1ncn2[C@@H]1O[C@H](COC(Cc2ccc(Cl)c(OC(F)(F)F)c2)(C(=O)O)C(=O)O)[C@@H](O)[C@@H]1F [compound 125] | 242 | 836 |
| Nc1nc(Cl)nc2c1ncn2[C@@H]1O[C@H](COC(Cc2c(F)cc(Cl)cc2F)(C(=O)O)C(=O)O)[C@@H](O)[C@@H]1F [compound 126] | 25300 | – |
| Nc1nc(Cl)nc2c1ncn2[C@@H]1O[C@H](COC(Cc2ccccc2F)(C(=O)O)C(=O)O)[C@@H](O)[C@@H]1F [compound 127] | 149 | 408 |
| Nc1ncnc2c1ncn2[C@@H]1O[C@H](COC(Cc2cccc(OC(F)(F)F)c2)(C(=O)O)C(=O)OCCN2CCOCC2)[C@@H](O)[C@@H]1F (stereo partly shown) [compound 139] | 16500 | – |
| Nc1nc(Cl)nc2c1ncn2[C@@H]1O[C@H](COC(Cc2ccc(NC(=O)c3cccs3)cc2)(C(=O)O)C(=O)O)[C@@H](O)[C@@H]1F [compound 140] | 30 | – |
| Nc1nc(Cl)nc2c1ncn2[C@@H]1O[C@H](COC(Cc2ccc(NC(=O)c3cccs3)cc2)(C(=O)O)C(=O)O)[C@@H](O)[C@@H]1F [compound 141] | 60 | – |
| Nc1nc(Cl)nc2c1ncn2[C@@H]1O[C@H](COC(Cc2ccc(-c3cccnc3)cc2)(C(=O)O)C(=O)O)[C@@H](O)[C@@H]1F [compound 142] | 67 | – |
| Nc1nc(Cl)nc2c1ncn2[C@@H]1O[C@H](COC(Cc2ccc(-c3cncnc3)cc2)(C(=O)O)C(=O)O)[C@@H](O)[C@@H]1F [compound 143] | 136 | – |
| Nc1nc(Cl)nc2c1ncn2[C@@H]1O[C@H](COC(Cc2ccc(-c3ccc(F)cc3)cc2)(C(=O)O)C(=O)O)[C@@H](O)[C@@H]1F [compound 144] | 65 | – |
| Nc1nc(Cl)nc2c1ncn2[C@@H]1O[C@H](COC(Cc2ccc(C(=O)O)cc2)(C(=O)O)C(=O)O)[C@H](O)[C@@H]1F [compound 145] | 106 | – |
| Nc1nc(Cl)nc2c1ncn2[C@@H]1O[C@H](COC(Cc2ccccc2)(C(=O)O)C(=O)O)[C@@H](O)[C@@H]1Cl [compound 146] | 181 | – |
| CS(=O)(=O)c1ccc(CC(OC[C@H]2O[C@@H](n3cnc4c(N)nc(Cl)nc43)[C@@H](F)[C@@H]2O)(C(=O)O)C(=O)O)cc1 [compound 153] | 74 | – |
| Nc1nc(Cl)nc2c1ncn2[C@@H]1O[C@H](COC(Cc2ccccc2)(C(=O)O)C(=O)O)[C@@H](O)[C@@H]1F [compound 169] | 119 | – |
| Nc1nc(Cl)nc2c1ncn2[C@@H]1O[C@H](COC(Cc2ccc(C(=O)O)cc2)(C(=O)O)C(=O)O)[C@@H](O)[C@@H]1F [compound 171] | 114 | – |
| CCOC(=O)C(Cc1ccccc1)(OC[C@H]1O[C@@H](n2cnc3c(N)nc(Cl)nc32)[C@H](O)[C@@H]1O)c1nn[nH]n1 (stereo partly shown) [compound 193] | > 50000 | – |
